These results are taken from patent US4652568A, “Theophylline-7-acetic acid ester of d,l-trans-sobrerol having mucosecretolytic-fluidizing and antibronchospastic activity, a process for its preparation and pharmaceutical compositions thereof” (priority 1984, dated 1987).

Data set [1] has as its system bronchospasm induced by hystamine. Description: Antibronchospastic activity in the guinea-pig, method of Konzett and Rossler. Type of data set: in vivo. Conditions: drug i.v., inhibition of bronchospasm by hystamine (6 to 20 mg/kg i.v.), relative to theophylline, taken equal to 100. The procedure:
Spotted female guinea-pigs, with a body weight of 300-500 g., are used.
As a spasmogenous agent, hystamine (6 to 20 mg/kg i.v.) is used. The activity is defined as percent inhibition of the bronchospasm induced by hystamine in the presence of the drug (i.v. administered), compared to the one of hystamine alone in the presence of the solvent.
The drugs are dissolved into 2% dimethylformamide in physiological solution (solvent).

A short description of data set [2]: Acute toxicity: LD50 in the mouse after a single oral administration. Conditions: in vivo, mortality at 14th day, Litchfield and Wilcoxon. The procedure:
Method for studying LD50 in the mouse after a single oral administration.
Groups of 10 Swiss albine, female, adult mice (20-22 g), fasting from the evening preceding the test, are treated orally with various doses (4 to 5) of the test drugs, dissolved/suspended in 1% hydroxycellulose (volume administered 20 ml/kg). Thereafter, the animals are fed again (Morini MIL fodder for mice).
The 50% lethal dose (LD50) is calculated by the method of Litchfield J. T. and Wilcoxon F. (J. Pharmacol. 96, 99-113, 1949) by utilizing the mortality data as obtained at the 14th day after the drug treatment.

Data set [3] in a line: Pharmacocinetics: plasma levels (HPLC) and presence in tracheo-bronchial excretion and pulmonary tissue. Conditions: rat, 300 mg/kg oral. The class given is in vivo, Wistar rats. The procedure:
Two groups of Wistar rats (165.div.250 g) are utilized. Before treatment, the animals were fasting for about 15 hours and were allowed to drink a 10% glucose solution ad libitum.
To the first group, the compound of formula (I) of this invention, orally (transoesophageal intubation) at the dose of 300 mg/kg is administered (a single administration) and at 0.5 h; 1 h; 1.5 h; 2 h; 3 h; 4 h; and 6 h from administration 5 rats/time are sacrificed. The blood, as collected into test tubes containing sodium heparin is centrifuged, and the plasma so obtained is utilized for quantitative analysis of the product, by means of high pressure liquid chromatography (HPLC) with an U.V. detector. To the second group, the compound of formula (I) of this invention at the dose of 300 mg/kg orally is administered (a single administration), and at 1 h and 2 h from administration, 5 rats/time are sacrificed (by bleeding). To each rat, trachea, bronchia and lungs are withdrawn. From trachea and bronchia, by means of two washings with a 0.5 ml syringe containing physiological solution, introduced into the trachea, the tracheo-bronchialexcretion is recovered, which is utilized to evaluate quantitatively the presence of the compound of formula (I) of the present invention. The pulmonary tissue, to which a KCl solution has been added, is homogenized by an ultra Turrax apparatus and utilized for the quantitative testing of the presence of the compound of formula (I) of this invention. […] In relation to the activity shown on by the compound of the invention as a mucosecretolytic-fluidizing-anti-bronchospastic agent, the present invention further provides pharmaceutical compositions containing the compound of formula (I) of this invention in dosage units.

In data set [4] the test system is mucoproduction (bronchial secretion). Description: Bronchosecretagogue activity: mucoproduction in the rabbit according to Scuri. The class given is in vivo. Conditions: for Bronchosecretagogue activity: rabbit, oral, percent increase of mucoproduction II vs I period, relative to d,l-trans-sobrerol, taken equal to 100. The procedure:
Method of mucoproduction in the rabbit according to Scuri R. et al, Boll. Chim. Farm.
Male brown rabbits weighing 2.8-3.5 kg are used. To said animals, by a surgical operation under anaesthesia, a T shaped tracheal cannula is applied, as described in the above mentioned bibliographic reference.
To the cannula, a container (a polypropylene 2 ml test tube) is applied for periodical collection of the bronchial secretion.
The study of mucoproduction, started at the fourth day after the operation, is divided into two 4 hour periods for collecting and measuring the mucus, and precisely from 8:30 to 12:30 (I) and from 12:30 to 16:30 (II).
The activity of each drug is tested by administering the same by oesophageal way (os) at the begining of the II period and by evaluating the percent increase of mucoproduction (weight of the mucus as collected) over the II period as compared to the I period.

Data set [5] deals with bronchial mucus of bronchitic rabbits. Description: Fluidizing "in vivo" activity: viscosity of the bronchial mucus of bronchitic rabbits. Further details: species or system rabbit. The settings on record: for Fluidizing "in vivo" activity of bronchial mucus: bronchitic rabbits, oral, relative to d,l-trans-sobrerol taken equal to 100. The protocol:
Method for studying viscosity of the bronchial mucus of a bronchitic rabbit.
Viscosity of the mucus as withdrawn is studied by using a Contraves RM16 microviscosimeter and it is recorded by a Rheomat 15T-FC apparatus.

In data set [1], `CC1=CC[C@H](C(C)(C)O)C[C@H]1OC(=O)Cn1cnc2c1c(=O)n(C)c(=O)n2C` (relative stereo) [CO/1488, 5-hydroxy-α,α-4-trimethyl-3-cyclohexene-1-methanol-5-[2[7[1,2,3,6-tetrahydro-1,3-dimethyl-2,6-dioxopurinyl]]]acetate] had an Antibronchospastic activity of 143. The compound further yielded an LD50 at 336 h in data set [2] of 1900 mg/kg. In data set [3] (1 h and 2 h), the “presence at the level of tracheo-bronchial mucus” value was “found also at the level of tracheo-bronchial mucus” and the “presence in the pulmonary parenchyma” value is given as “in the pulmonary parenchyma”. Besides, the “absorption (course of the plasmatic levels)” value in data set [3] (single administration, plasma 0.5 to 6 h) is “quick and good absorption”. In data set [4], the Bronchosecretagogue activity was determined as 128. For the same compound, the “mucosecretolytic activity compared with d,l-trans-sobrerol, in words” value in data set [4] (summary statement) is listed as “slight potency increase”. Also, the “Fluidizing "in vivo" activity of bronchial mucus” value (“Fluidizing "in vivo" activity” for short) in data set [5] is reported as 110. Moreover, the “fluidizing activity compared with d,l-trans-sobrerol, in words” value in data set [5] (summary statement) is listed as “slight potency increase”.

`Cn1c(=O)c2[nH]cnc2n(C)c1=O` [theophylline] came in with an Antibronchospastic activity in data set [1] of 100. The compound further gave a Bronchosecretagogue activity in data set [4] of 0. Also, the “Fluidizing "in vivo" activity” value in data set [5] was 0.

For `CC1=CC[C@H](C(C)(C)O)C[C@H]1O` (relative stereo) [d,l-trans-sobrerol], the Antibronchospastic activity in data set [1] is given as 0. For the same compound, the Bronchosecretagogue activity in data set [4] was 100. In addition, in data set [5], the “Fluidizing "in vivo" activity” value was 100.
